Experimental data from the supplement of paper PMC10307832.

Columns and labels:
Test in all cases: relative viability (nuclei count vs DMSO), 5 days (fraction); higher = more cells survive
Ibrutinib + Trametinib = compound: C=CC(=O)N1CCC[C@@H](n2nc(-c3ccc(Oc4ccccc4)cc3)c3c(N)ncnc32)C1 [Ibrutinib] + CC(=O)Nc1cccc(-n2c(=O)n(C3CC3)c(=O)c3c(Nc4ccc(I)cc4F)n(C)c(=O)c(C)c32)c1 [Trametinib] (partner 0.02 µM)
Outline: (§1)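 A single step with final 0.05% Triton X-100, 1% formaldehyde and 1 ug/ml Hoechst fixed the cells and stained nuclei 5 days after treatment. Lung cancer cell lines in 1536-well plates had been treated by pin tool the day after seeding with one drug alone or a fixed anchor-drug dose plus five library-drug doses (not always all listed) in √10 steps, and nuclei were counted on 4× images. Relative viability is the ratio of nuclei in treated wells to nuclei in vehicle wells, taken as the median of duplicate plates.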

Ibrutinib + Alpelisib = compound: C=CC(=O)N1CCC[C@@H](n2nc(-c3ccc(Oc4ccccc4)cc3)c3c(N)ncnc32)C1 [Ibrutinib] + Cc1nc(NC(=O)N2CCC[C@H]2C(N)=O)sc1-c1ccnc(C(C)(C)C(F)(F)F)c1 [Alpelisib] (partner 2 µM)
Outline: as §1

BMX-IN-1 + Decitabine = compound: C=CC(=O)Nc1cc(-n2c(=O)ccc3cnc4ccc(-c5ccc(NS(C)(=O)=O)cc5)cc4c32)ccc1C [BMX-IN-1] + Nc1ncn([C@H]2C[C@H](O)[C@@H](CO)O2)c(=O)n1 [Decitabine] (partner 2 µM)
Outline: as §1

PAC-1 + Pictilisib = compound: C=CCc1cccc(/C=N/NC(=O)CN2CCN(Cc3ccccc3)CC2)c1O [PAC-1] + CS(=O)(=O)N1CCN(Cc2cc3nc(-c4cccc5[nH]ncc45)nc(N4CCOCC4)c3s2)CC1 [Pictilisib] (partner 1 µM)
Outline: as §1

Cell Line	relative viability (Ibrutinib + Trametinib; first compound 0.005 µM)	relative viability (Ibrutinib + Trametinib; first compound 0.01581 µM)	relative viability (Ibrutinib + Trametinib; first compound 0.05 µM)	relative viability (Ibrutinib + Trametinib; first compound 0.1581 µM)	relative viability (Ibrutinib + Trametinib; first compound 0.5 µM)	relative viability (Ibrutinib + Alpelisib; first compound 0.005 µM)	relative viability (Ibrutinib + Alpelisib; first compound 0.01581 µM)	relative viability (Ibrutinib + Alpelisib; first compound 0.05 µM)	relative viability (Ibrutinib + Alpelisib; first compound 0.1581 µM)	relative viability (Ibrutinib + Alpelisib; first compound 0.5 µM)	relative viability (BMX-IN-1 + Decitabine; first compound 0.02 µM)	relative viability (BMX-IN-1 + Decitabine; first compound 0.2 µM)	relative viability (BMX-IN-1 + Decitabine; first compound 0.6325 µM)	relative viability (BMX-IN-1 + Decitabine; first compound 2 µM)	relative viability (PAC-1 + Pictilisib; first compound 0.02 µM)	relative viability (PAC-1 + Pictilisib; first compound 0.06325 µM)	relative viability (PAC-1 + Pictilisib; first compound 0.2 µM)	relative viability (PAC-1 + Pictilisib; first compound 2 µM)
LU99A	0.532	0.575	0.528	0.574	0.553	0.419	0.449	0.492	0.499	0.496	0.922	0.855	1.13	0.882	0.32	0.271	0.313	0.322
LXF-289	0.703	0.649	0.689	0.694	0.722		1.03			0.908	0.388	0.338	0.374	0.41	0.846	0.727	0.739	0.792
NCI-H23	0.313	0.38	0.362	0.366	0.361	0.514	0.695	0.566	0.76	0.6	0.326	0.295	0.338	0.296	0.365	0.461	0.414	0.473
NCI-H322M	0.466	0.457	0.532	0.519	0.508	0.752	0.807	0.779	0.838	0.486	0.604	0.699	0.722	0.661	0.4	0.513	0.499	0.332
NCI-H358	0.102	0.194		0.138	0.116	0.817	0.603	0.504	0.887	0.36	0.181	0.2	0.239	0.214	0.355	0.396	0.376	0.367
NCI-H441	0.423	0.441	0.524	0.344	0.342	0.908	0.54	0.868	0.871	0.711	0.256	0.246	0.321	0.233	0.447	0.583	0.552	0.377
NCI-H460	0.133	0.0919	0.195	0.13	0.152	0.5	0.319	0.496	0.536	0.538	0.568	0.657	0.478	0.428	0.281	0.405	0.355	0.39
NCI-H520	0.486	0.651	0.653	0.794	0.621	0.892	0.797	1.04	1.09	0.759	0.549	0.494	0.449	0.529	0.266	0.303	0.256	0.35
NCI-H596	0.821	0.688	0.808	0.826	0.874	0.482	0.503	0.51	0.503	0.479	1.04	1.14	0.945	1.2	0.424	0.423	0.341	0.422
NCI-H647	0.415	0.445	0.478	0.443	0.529	1.15	1.01	1.14	1.45	1.21	0.407	0.502	0.479	0.462	0.417		0.417	0.331
NCI-H650	0.921	0.967	1.01	1.06	0.976		1		1.26	1.13	0.321	0.303	0.318	0.346	1.07	0.951	0.86	0.874
NCI-H661	0.509	0.478	0.436	0.532	0.433	0.467	0.68	0.358	0.524	0.216	0.617	0.528	0.634	0.525	0.392	0.351	0.33	0.371
NCI-H727	0.463	0.4	0.398	0.37	0.388	0.519	0.556	0.433	0.576	0.435	0.668	0.917	0.777	1.01	0.338	0.525	0.453	0.283
NCI-H838	0.342	0.484	0.528	0.523	0.499	0.836	1	1.14	1.01	0.987	0.5	0.439	0.466	0.444	0.427	0.526	0.387	0.455
NCI-H1355		0.395	0.363	0.433	0.368		0.704	0.782	0.887	0.646	0.357	0.368	0.355	0.401	0.386	0.475	0.393	0.492
NCI-H1395	0.912	1.13	1.16	1.04	1.01	0.997	0.988	1.35	1.16	0.997	0.781	0.695	0.677	0.769	0.603	0.677	0.61	0.602
NCI-H1437	0.53	0.51	0.555	0.491	0.624	0.958	0.937	1.01	0.988	1.03	0.672	0.603	0.623	0.575	0.495	0.474	0.415	0.391
NCI-H1651	0.858	0.807	0.765	0.776	0.773	0.903	0.938	0.995	0.935	1.1	0.5	0.667	0.722	0.593	0.579	0.647	0.59	0.535
